Results on ten molecules are retold here after ChEMBL document CHEMBL5042471, “Development and Application of Subtype-Selective Fluorescent Antagonists for the Study of the Human Adenosine A1 Receptor in Living Cells” (J Med Chem, 2021).

The source made the active and inactive calls. The calls are words filed in the database; no cut-off is given here.

Assay [1] addresses T1, Adenosine receptor A1 (Homo sapiens, UniProt P30542).
T1 sequence (P30542 whole entry): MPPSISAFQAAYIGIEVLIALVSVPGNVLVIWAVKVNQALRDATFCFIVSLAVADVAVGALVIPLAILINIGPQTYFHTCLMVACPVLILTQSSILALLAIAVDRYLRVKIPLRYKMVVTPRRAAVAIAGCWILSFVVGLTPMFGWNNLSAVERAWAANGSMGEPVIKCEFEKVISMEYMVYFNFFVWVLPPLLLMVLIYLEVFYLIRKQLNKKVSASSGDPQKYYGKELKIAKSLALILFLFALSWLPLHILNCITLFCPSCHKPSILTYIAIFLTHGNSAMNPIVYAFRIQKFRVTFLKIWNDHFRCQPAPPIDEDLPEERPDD
The assay can be described thus: Displacement of [3H]DPCPX from human A1 adenosine receptor expressed in Flp-In-CHO cells by radioligand competitive binding assay. The class given is cell-based.

Assay [2] concerns the target T2, Adenosine receptor A3 (Homo sapiens, UniProt P0DMS8).
T2 sequence (P0DMS8 whole entry): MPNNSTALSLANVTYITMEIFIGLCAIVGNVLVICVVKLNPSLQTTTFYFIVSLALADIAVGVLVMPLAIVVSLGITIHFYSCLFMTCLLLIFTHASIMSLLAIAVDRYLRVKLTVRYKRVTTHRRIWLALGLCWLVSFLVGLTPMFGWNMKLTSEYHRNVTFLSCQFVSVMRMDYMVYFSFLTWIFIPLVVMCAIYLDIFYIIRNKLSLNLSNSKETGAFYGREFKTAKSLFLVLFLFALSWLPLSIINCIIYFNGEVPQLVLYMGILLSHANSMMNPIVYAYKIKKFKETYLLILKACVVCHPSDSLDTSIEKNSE
The assay can be described thus: Agonist activity at A3 adenosine receptor (unknown origin). The class given is functional.

In assay [3] the target is T1, Adenosine receptor A1. The assay can be described thus: Binding affinity to NanoLuc human A1 adenosine receptor expressed in HEK293-A cells in prescence of NECA by NanoBRET competitive binding assay. The class given is cell-based.
For the next assay, the target named is T3, Adenosine receptor A2b (Homo sapiens, UniProt P29275).
T3 sequence (P29275 whole entry): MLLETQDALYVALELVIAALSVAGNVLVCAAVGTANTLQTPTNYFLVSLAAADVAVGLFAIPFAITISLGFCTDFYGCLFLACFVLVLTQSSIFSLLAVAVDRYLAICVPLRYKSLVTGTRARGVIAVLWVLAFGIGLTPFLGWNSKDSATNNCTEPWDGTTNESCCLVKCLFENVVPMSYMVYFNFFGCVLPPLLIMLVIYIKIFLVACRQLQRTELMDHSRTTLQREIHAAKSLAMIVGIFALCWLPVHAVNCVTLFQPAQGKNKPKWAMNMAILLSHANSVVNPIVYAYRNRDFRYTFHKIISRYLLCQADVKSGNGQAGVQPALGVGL
In words: Binding affinity to NLuc human A2B adenosine receptor expressed in HEK293-A cells in presence of 1 uM PSB603 by NanoBRET binding assay. It is filed as cell-based.

In assay [4] the target is T1, Adenosine receptor A1. In words: Binding affinity to NLuc human A1 adenosine receptor expressed in HEK293-A cells in presence of 1 uM SLV320 by NanoBRET binding assay. The class given is cell-based.
Assay [5] deals with T4, Adenosine receptor A1 (Homo sapiens) (UniProt P30542).
T4 sequence (whole entry): T1 sequence (P30542 whole entry)
In words: Binding affinity to SNAP-tagged-human A1 adenosine receptor expressed in HEK293 cells at 50 nM after 30 mins in presence of SLV320 by confocal microscopy method. It is filed as cell-based.

Assay [6] deals with T4, Adenosine receptor A1 (Homo sapiens). The assay can be described thus: Binding affinity to NanoLuc-human A1 adenosine receptor expressed in HEK293-A cells assessed as binding constant (koff) by NanoBRET competitive binding assay. The class given is cell-based. As to conditions: filed as antagonist.
Assay [7] has as its target T2, Adenosine receptor A3. In words: Binding affinity to NLuc human A3 adenosine receptor expressed in HEK293-A cells in presence of 1 uM MRS1220 by NanoBRET binding assay. The class given is cell-based.
The target in assay [8] is T1, Adenosine receptor A1. In words: Binding affinity to NanoLuc-human A1 adenosine receptor expressed in HEK293-A cells assessed as kinetic dissociation constant by NanoBRET competitive binding assay. The class given is cell-based.
Assay [9] deals with T4, Adenosine receptor A1 (Homo sapiens). The assay can be described thus: Binding affinity to NanoLuc-human A1 adenosine receptor expressed in HEK293-A cells assessed as binding constant (kon) by NanoBRET competitive binding assay. As to conditions: filed as antagonist. It is filed as cell-based.
Assay [10] concerns the target T5, Adenosine receptor A2a (Homo sapiens, UniProt P29274). In words: Binding affinity to NLuc human A2A adenosine receptor expressed in HEK293-A cells in presence of 1 uM ZM241385 by NanoBRET binding assay. The class given is cell-based.
Assay [11] addresses T1, Adenosine receptor A1. The assay can be described thus: Binding affinity to NanoLuc human A1 adenosine receptor expressed in HEK293-A cells in prescence of SLV320 by NanoBRET competitive binding assay. It is filed as cell-based.
For assay [12], the target named is T1, Adenosine receptor A1. In words: Binding affinity to NanoLuc human A1 adenosine receptor expressed in HEK293-A cells in prescence of DPCPX by NanoBRET competitive binding assay. The class given is cell-based.
Assay [13] concerns the target T4, Adenosine receptor A1 (Homo sapiens). In words: Binding affinity to SNAP-tagged-human A1 adenosine receptor expressed in HEK293 cells assessed as red fluorescent spot in plasma membrane pre-incubated with 10 uM SLV320 by microscopy based TIRF assay. The class given is cell membranes.
For assay [14] the target is unchanged. In words: Antagonist activity at human A1 adenosine receptor expressed in Flp-In-CHO cells assessed as reduction in NECA-mediated inhibition of forskolin stimulated cAMP accumulation by cAMP assay. It is filed as functional, cell-based. To be noted: filed as antagonist.
Assay [15] has the same target. In words: Binding affinity to NLuc human A1 adenosine receptor expressed in HEK293-A cells assessed as maximal binding capacity in presence of 1 uM SLV320 by NanoBRET binding assay. To be noted: filed as antagonist. The class given is cell-based.
The target of assay [16] is T6, Adenosine receptor A2b (Homo sapiens) (UniProt P29275).
T6 sequence (whole entry): T3 sequence (P29275 whole entry)
The assay can be described thus: Binding affinity to NLuc human A2B adenosine receptor expressed in HEK293-A cells assessed as maximal binding capacity in presence of 1 uM PSB603 by NanoBRET binding assay. The class given is cell-based. As to conditions: filed as antagonist.

Assay [17] has as its target T7, Adenosine receptor A3 (Homo sapiens) (UniProt P0DMS8).
T7 sequence (whole entry): T2 sequence (P0DMS8 whole entry)
The assay can be described thus: Binding affinity to NLuc human A3 adenosine receptor expressed in HEK293-A cells assessed as maximal binding capacity in presence of 1 uM MRS1220 by NanoBRET binding assay. The class given is cell-based. To be noted: filed as antagonist.

The target of assay [18] is T5, Adenosine receptor A2a. In words: Binding affinity to NLuc human A2A adenosine receptor expressed in HEK293-A cells assessed as maximal binding capacity in presence of 1 uM ZM241385 by NanoBRET binding assay. It is filed as cell-based. To be noted: filed as antagonist.
Assay [19] has as its target T4, Adenosine receptor A1 (Homo sapiens). In words: Binding affinity to SNAP-tagged-human A1 adenosine receptor expressed in HEK293 cells at 10 nM after 30 mins in presence of SLV320 by confocal microscopy method. It is filed as cell-based.

T5 sequence (P29274 whole entry): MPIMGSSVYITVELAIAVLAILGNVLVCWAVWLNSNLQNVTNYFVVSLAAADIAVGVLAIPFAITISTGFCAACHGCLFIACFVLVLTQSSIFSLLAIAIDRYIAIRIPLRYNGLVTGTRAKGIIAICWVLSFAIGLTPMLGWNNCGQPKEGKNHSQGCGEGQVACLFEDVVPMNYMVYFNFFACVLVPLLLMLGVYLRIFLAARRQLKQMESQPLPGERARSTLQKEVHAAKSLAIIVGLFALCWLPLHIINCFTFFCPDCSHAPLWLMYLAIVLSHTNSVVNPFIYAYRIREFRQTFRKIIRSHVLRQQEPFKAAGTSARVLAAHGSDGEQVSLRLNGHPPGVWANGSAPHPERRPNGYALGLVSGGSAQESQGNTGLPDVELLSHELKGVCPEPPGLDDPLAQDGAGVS

As for `CCCn1c(=O)c2[nH]c(C34CCC(C(=O)NCCCNC(=O)COCCNC(=O)OC(C)(C)C)(CC3)CC4)nc2n(CCC)c1=O`, at Adenosine receptor A1 [1], the Ki is 16.2 nM.

Turning to `CCCn1c(=O)c2[nH]c(C34CC5CC(CC(C5)C3)C4)nc2n(CCCNC(=O)c2ccc(C(=O)NCCNC(=O)CCNC(=O)CCCCC[N+]3=C(/C=C/C=C/C=C4/N(C)c5ccc(S(=O)(=O)O)cc5C4(C)C)C(C)(C)c4cc(S(=O)(=O)[O-])ccc43)cc2)c1=O`, the Ki at Adenosine receptor A1 [1] was over 10000 nM.

Turning to `CCCn1c(=O)c2[nH]c(C34CCC(CCC(=O)NCCNC(=O)CCNC(=O)CCNC(=O)OC(C)(C)C)(CC3)CC4)nc2n(CCC)c1=O`, the Ki at Adenosine receptor A1 [1] was 7.76 nM.

Take `CCCn1c(=O)c2[nH]c(C34CC5CC(CC(C5)C3)C4)nc2n(CCCNC(=O)c2ccc(C(=O)NCCNC(=O)CCCCCNC(=O)COc3ccc(/C=C/C4=[N+]5C(=Cc6ccc(-c7cccs7)n6[B-]5(F)F)C=C4)cc3)cc2)c1=O`: the Ki at Adenosine receptor A1 [1] was 5.89 nM.

For the molecule `CCCn1c(=O)c2[nH]c(C34CCC(C(=O)NCCNC(=O)CCNC(=O)CCNC(=O)OC(C)(C)C)(CC3)CC4)nc2n(CCC)c1=O`, at Adenosine receptor A1 [1], affinity was put at a Ki of 4.37 nM.

The molecule `CCCn1c(=O)c2[nH]c(C34CCC(C(=O)NCCNC(=O)CCCCC[N+]5=C(/C=C/C=C/C=C6/N(C)c7ccc(S(=O)(=O)O)cc7C6(C)C)C(C)(C)c6cc(S(=O)(=O)[O-])ccc65)(CC3)CC4)nc2n(CCC)c1=O` showed a Ki on Adenosine receptor A1 [1] of 851 nM.

Take `CCNC(=O)[C@H]1O[C@@H](n2cnc3c(NCCCCNC(=O)CNC(=O)[C@@H](C)NC(=O)[C@@H](C)NC(=O)CCCCCNC(=O)COc4ccc(/C=C/C5=[N+]6C(=Cc7ccc(-c8cccs8)n7[B-]6(F)F)C=C5)cc4)ncnc32)[C@H](O)[C@@H]1O`: a half-maximal effect on Adenosine receptor A3 [2] (EC50) was put at 3.31 nM.

Regarding `CCCn1c(=O)c2[nH]c(C34CCC(C(=O)NCCNC(=O)CCNC(=O)CCNC(=O)CCCCC[N+]5=C(/C=C/C=C/C=C6/N(C)c7ccc(S(=O)(=O)O)cc7C6(C)C)C(C)(C)c6cc(S(=O)(=O)[O-])ccc65)(CC3)CC4)nc2n(CCC)c1=O`, the Ki at Adenosine receptor A1 [3] was 398 nM; at Adenosine receptor A1 [11] it was 0.708 nM; at Adenosine receptor A1 [12], 7.41 nM; on Adenosine receptor A1 [1] it was 200 nM. In addition, the Kd at Adenosine receptor A2b is over 1000 nM; on Adenosine receptor A1 [4], 44.7 nM; on Adenosine receptor A3 [7], over 1000 nM; at Adenosine receptor A1 [8] it was 138 nM; on Adenosine receptor A2a [10], over 1000 nM. Also, the result in assay [5] and in assay [13] was inactive. Also, the figures for the K in [6] and in [9] were 0.117 min⁻¹ and 0.86 10^6/M/min, respectively. Further, the pKb in [14] is 7.12. The Bmax in assay [15] stood at 0.03.

For the molecule `CCCn1c(=O)c2[nH]c(C34CC5CC(CC(C5)C3)C4)nc2n(CCCNC(=O)c2ccc(C(=O)NCCNC(=O)CCNC(=O)CCCCCNC(=O)COc3ccc(/C=C/C4=[N+]5C(=Cc6ccc(-c7cccs7)n6[B-]5(F)F)C=C4)cc3)cc2)c1=O`, the Ki is 1100 nM at Adenosine receptor A1 [3], 1.41 nM on Adenosine receptor A1 [11], 20.9 nM on Adenosine receptor A1 [12] and 9.77 nM on Adenosine receptor A1 [1]. Also, the Kd was 55 nM at Adenosine receptor A2b; 3.16 nM on Adenosine receptor A1 [4]; 58.9 nM at Adenosine receptor A3 [7]; 13.2 nM at Adenosine receptor A1 [8]; 50.1 nM on Adenosine receptor A2a [10]. The Bmax was 0.004 in assay [16], 0.001 in assay [17], 0.003 at Adenosine receptor A2a [18] and 0.019 in assay [15]. Moreover, the values for the K in assay [6] and in [9] were 0.046 min⁻¹ and 3.6 10^6/M/min, respectively. Further, the outcome in assay [19] was inactive. Besides, the pKb in assay [14] was determined as 8.72.

On Adenosine receptor A1 [1], `CCCn1c(=O)c2[nH]c(C34CCC(CCC(=O)NCCNC(=O)COCCOCCNC(=O)OC(C)(C)C)(CC3)CC4)nc2n(CCC)c1=O` gave an inhibitory constant (Ki) of 13.2 nM.
